Test results reported in patent EP4116414A1 (Centre National de la Recherche Scientifique, dated 2023).
Each block holds one molecule with its values, some of them ahead of it.

Assays:
[1] = target: Bacillus subtilis 168 formate dehydrogenase YjgCD heterodimer, wild type (6his-YjgC, SEQ ID NO: 1; YjgD, SEQ ID NO: 3) (Bacillus subtilis, UniProt O34720); details: formate oxidation, benzyl viologen as artificial electron acceptor, 25 mM CHES pH 10, 25°C
Procedure: FDH activity was determined using an Avaspec-2048L spectrometer (Avantes), inside an anaerobic glovebox filled with an atmosphere of 100% N2. The experiments were carried out at room temperature (25°C) with stirring.
For formate::benzyl viologen OR measurements, the reduction of 17.5 mM benzyl viologen (BV) was monitored at 600 nm (ε600 nm BV^+ = 7.0945 mM^-1 cm^-1) in 25 mM CHES pH 10 after addition of 50 mM sodium formate. One unit of oxidizing activity is defined as the amount of FDH capable of oxidizing 1 µmol of formate par min per mg of enzyme.
First the yjgCD operon was expressed under the control of an inducible promoter and the YjgC protein to which a 6-histidine tag was added at the N-terminus was purified.

[2] = target: T1, YjgC 6his-tagged in N-terminal (His-YjgC), Bacillus subtilis 168 (Bacillus subtilis 168, UniProt O34720 1-985); test: Ni-NTA affinity purification of His-YjgC, Coomassie-stained SDS-PAGE
T1 construct: Expressed from the yjgCD operon under a xylose inducible promoter in B. subtilis strain 4088 and purified on Ni-NTA; Carries Mo-bisPGD and Fe-S cofactors; also called 6his-YjgC; catalytic subunit of YjgCD; not shown: N-terminal 6-his tag followed by a TEV cleavage site
T1 sequence: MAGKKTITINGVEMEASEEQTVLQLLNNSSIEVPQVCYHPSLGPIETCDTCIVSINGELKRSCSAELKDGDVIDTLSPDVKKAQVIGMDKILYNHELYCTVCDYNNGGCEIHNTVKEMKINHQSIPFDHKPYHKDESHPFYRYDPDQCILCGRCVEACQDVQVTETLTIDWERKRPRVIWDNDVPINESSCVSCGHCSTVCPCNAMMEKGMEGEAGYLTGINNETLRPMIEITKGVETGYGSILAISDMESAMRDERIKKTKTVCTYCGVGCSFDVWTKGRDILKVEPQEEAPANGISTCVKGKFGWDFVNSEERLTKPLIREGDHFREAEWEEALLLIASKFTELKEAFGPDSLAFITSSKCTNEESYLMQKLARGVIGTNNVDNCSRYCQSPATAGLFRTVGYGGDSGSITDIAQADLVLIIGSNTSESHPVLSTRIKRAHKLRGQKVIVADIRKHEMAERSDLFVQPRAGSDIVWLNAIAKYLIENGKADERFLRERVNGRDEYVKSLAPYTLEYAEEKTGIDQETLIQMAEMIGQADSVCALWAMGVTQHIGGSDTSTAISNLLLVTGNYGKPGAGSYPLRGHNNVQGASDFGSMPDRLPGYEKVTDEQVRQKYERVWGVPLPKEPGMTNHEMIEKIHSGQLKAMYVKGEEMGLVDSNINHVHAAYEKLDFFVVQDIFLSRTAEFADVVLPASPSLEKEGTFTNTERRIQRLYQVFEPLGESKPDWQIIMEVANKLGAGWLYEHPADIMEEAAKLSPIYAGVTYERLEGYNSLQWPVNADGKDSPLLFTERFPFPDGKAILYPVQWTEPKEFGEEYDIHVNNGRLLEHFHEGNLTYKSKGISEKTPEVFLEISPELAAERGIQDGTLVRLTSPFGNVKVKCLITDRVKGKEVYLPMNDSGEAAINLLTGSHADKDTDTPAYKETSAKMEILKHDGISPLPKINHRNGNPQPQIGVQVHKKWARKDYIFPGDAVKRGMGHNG

Molecule: formate
Kcat ([1]; anaerobic, YjgCD heterodimer MW 132 kDa): 96,1 ± 4 s^-1
Km ([1]; read-out: KM formate, anaerobic (100% N2)): 5.1 mM

binding result [2]: binds
B1: YjgD protein of Bacillus subtilis 168 (other)
chain: MAKAIKRIQKIEVTEEDQRKRDLREIEDALIDHKEAILETLHMLGHMNERGVLPLLRGLFGQGDKVLDILVKKADTEETANTLKNLLLLFGTLGMLDVKQLEPLILKVNAGVASAVEQKNSEEKTGYFDIIRSLKDPEINKSITLLFSFLKGMGQDTKELERTTQPPEHQKHHQEPREKRGMNKRD
notes: Untagged and co-expressed with His-YjgC from the yjgCD operon; Predicted monomeric mass 21.3 kDa; also called partner subunit of YjgCD
